Test results: publication PMC12490239, “Combining BET inhibition with SMAC mimetics restricts tumor growth and triggers immune surveillance in preclinical cancer models” (Cell Reports Medicine, 2025)
pIC50: −log10 of the molar value.

Columns and labels:
Experiment in all cases: cells
Set-up in all cases: CellTiter-Glo 2.0 luminescence proliferation/viability assay, single agents, human tumour cell line panel
HCC95 = conditions: Homo sapiens, HCC95, 96 h; single agent; read-out: IC50 SMACm
Outline: (§1)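 Human tumour cell lines were seeded into assay plates and held at 37°C with 5% CO2 for twenty-four hours, then exposed in triplicate to rising concentrations of the SMAC mimetic, from 4.5 nM to 10 μM, with DMSO as control. After 96 h, viability was read as CellTiter-Glo2.0 luminescence to derive single-agent IC50 values.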

DLD-1 = conditions: Homo sapiens, DLD-1, 96 h; single agent; read-out: IC50 SMACm
Outline: as §1

CL14 = conditions: 96 h; single agent; read-out: IC50 SMACm
Outline: as §1

HCC78 = conditions: Homo sapiens, HCC78, 96 h; single agent; read-out: IC50 SMACm
Outline: as §1

HCA24 = conditions: 96 h; single agent; read-out: IC50 SMACm
Outline: as §1

NCI-SNU-1 = conditions: 96 h; single agent; read-out: IC50 SMACm
Outline: as §1

AsPC-1 = conditions: Homo sapiens, ASPC1, 96 h; single agent; read-out: IC50 SMACm
Outline: as §1

COLO-205 = conditions: Homo sapiens, COLO 205, 96 h; single agent; read-out: IC50 SMACm
Outline: as §1

NCI-H2030 = conditions: Homo sapiens, NCI-H2030, 96 h; single agent; read-out: IC50 SMACm
Outline: as §1

C10 = conditions: 96 h; single agent; read-out: IC50 SMACm
Outline: as §1

RERF-LC-Ad2 = conditions: RERF-LC-Ad2, 96 h; single agent; read-out: IC50 SMACm
Outline: as §1

HT-115 = conditions: HT115, 96 h; single agent; read-out: IC50 SMACm
Outline: as §1

IM-95 = conditions: Homo sapiens, IM95, 96 h; single agent; read-out: IC50 SMACm
Outline: as §1

HCC1588 = conditions: HCC1588, 96 h; single agent; read-out: IC50 SMACm
Outline: as §1

HROC374 = conditions: 96 h; single agent; read-out: IC50 SMACm
Outline: as §1

CN[C@@H](C)C(=O)Nc1ccc(-c2c(-c3cccnc3OC)nc3cc(C)ccn23)c(C#Cc2ccc3c(C)nccc3c2)n1 [SMACm, BI 891065]
pIC50 (HCC95): 5.22
pIC50 (DLD-1): 5.29
pIC50 (CL14): 5.72
pIC50 (HCC78): 5.29
pIC50 (HCA24): 5.76
pIC50 (NCI-SNU-1): 5.21
pIC50 (AsPC-1): < 5.00
pIC50 (COLO-205): 5.30
pIC50 (NCI-H2030): 5.37
pIC50 (C10): 5.19
pIC50 (RERF-LC-Ad2): 5.60
pIC50 (HT-115): 5.41
pIC50 (IM-95): 5.91
pIC50 (HCC1588): 5.51
pIC50 (HROC374): 5.48
